Measurements: PubChem BioAssay (NCI)
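96-well plates; 48 h exposure; 5 concentrations. Endpoints by linear interpolation between flanking doses. Not reached: highest tested concentration assigned. GI50 is the concentration that inhibits growth by half. TGI is the concentration that stops growth completely.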

What was measured:
Assay in all cases: DTP human tumour cell line panel, 48 h
[1] = test system: SK-MEL-2 melanoma
[2] = test system: TK-10 renal
[3] = test system: MALME-3M melanoma
[4] = test system: PC-3 prostate
[5] = test system: SK-MEL-5 melanoma
[6] = test system: SF-539 CNS
[7] = test system: LOX IMVI melanoma
[8] = test system: T-47D breast
[9] = test system: HCT-116 colon
[10] = test system: SK-OV-3 ovarian
[11] = test system: NCI-H522 lung
[12] = test system: EKVX NSCLC
[13] = test system: UACC-257 melanoma
[14] = test system: SNB-75 CNS
[15] = test system: DU-145 prostate
[16] = test system: A498 renal
[17] = test system: HCT-15 colon
[18] = test system: RXF 393 renal
[19] = test system: A549 NSCLC
[20] = test system: K-562 leukemia
[21] = test system: HOP-62 NSCLC
[22] = test system: HT29 colon
[23] = test system: OVCAR-3 ovarian
[24] = test system: SK-MEL-28 melanoma
[25] = test system: U251 CNS
[26] = test system: OVCAR-4 ovarian
[27] = test system: SNB-19 CNS
[28] = test system: CCRF-CEM leukemia
[29] = test system: BT-549 breast
[30] = test system: HCC-2998 colon
[31] = test system: SN12C renal
[32] = test system: NCI-H226 lung
[33] = test system: KM12 colon
[34] = test system: SW-620 colon
[35] = test system: MDA-MB-231 breast
[36] = test system: MCF7 breast
[37] = test system: MDA-MB-435
[38] = test system: SF-268 CNS
[39] = test system: COLO 205 colon
[40] = test system: NCI-H23 lung
[41] = test system: UO-31 renal
[42] = test system: HS 578T breast
[43] = test system: OVCAR-8 ovarian
[44] = test system: ACHN renal
[45] = test system: IGROV1 ovarian
[46] = test system: SF-295 CNS
[47] = test system: NCI/ADR-RES ovarian
[48] = test system: CAKI-1 renal
[49] = test system: HOP-92 NSCLC
[50] = test system: M14 melanoma
[51] = test system: MOLT-4 leukemia
[52] = test system: OVCAR-5 ovarian
[53] = test system: UACC-62 melanoma
[54] = test system: RPMI-8226 leukemia
[55] = test system: 786-0 renal
[56] = test system: NCI-H460 lung

## COc1ccc2c(c1)c(=O)oc1cc(OC/C(C)=N\O)ccc12
[1]
  GI50: > 100 µM
  TGI: > 100 µM
[2]
  GI50: 44.8 µM
  TGI: > 100 µM
[3]
  GI50: > 100 µM
  TGI: > 100 µM
[4]
  GI50: > 100 µM
  TGI: > 100 µM
[5]
  GI50: > 100 µM
  TGI: > 100 µM
[6]
  GI50: 59.5 µM
  TGI: > 100 µM
[7]
  GI50: > 100 µM
  TGI: > 100 µM
[8]
  GI50: > 100 µM
  TGI: > 100 µM
[9]
  GI50: > 100 µM
  TGI: > 100 µM
[10]
  GI50: 99.7 µM
  TGI: > 100 µM
[11]
  GI50: 44.5 µM
  TGI: > 100 µM
[12]
  GI50: 3.38 µM
  TGI: > 100 µM
[13]
  GI50: > 100 µM
  TGI: > 100 µM
[14]
  GI50: 14.9 µM
  TGI: 42.9 µM
[15]
  GI50: > 100 µM
  TGI: > 100 µM
[16]
  GI50: > 100 µM
  TGI: > 100 µM
[17]
  GI50: > 100 µM
  TGI: > 100 µM
[18]
  GI50: 56.6 µM
  TGI: > 100 µM
[19]
  GI50: > 100 µM
  TGI: > 100 µM
[20]
  GI50: > 100 µM
  TGI: > 100 µM
[21]
  GI50: 28.7 µM
  TGI: > 100 µM
[22]
  GI50: > 100 µM
  TGI: > 100 µM
[23]
  GI50: > 100 µM
  TGI: > 100 µM
[24]
  GI50: > 100 µM
  TGI: > 100 µM
[25]
  GI50: 33.4 µM
  TGI: > 100 µM
[26]
  GI50: > 100 µM
  TGI: > 100 µM
[27]
  GI50: 48.3 µM
  TGI: > 100 µM
[28]
  GI50: > 100 µM
  TGI: > 100 µM
[29]
  GI50: 49.2 µM
  TGI: > 100 µM
[30]
  GI50: > 100 µM
  TGI: > 100 µM
[31]
  GI50: > 100 µM
  TGI: > 100 µM
[32]
  GI50: > 100 µM
  TGI: > 100 µM
[33]
  GI50: > 100 µM
  TGI: > 100 µM
[34]
  GI50: > 100 µM
  TGI: > 100 µM
[35]
  GI50: 42.9 µM
  TGI: > 100 µM
[36]
  GI50: > 100 µM
  TGI: > 100 µM
[37]
  GI50: > 100 µM
  TGI: > 100 µM
[38]
  GI50: 37.7 µM
  TGI: > 100 µM
[39]
  GI50: > 100 µM
  TGI: > 100 µM
[40]
  GI50: > 100 µM
  TGI: > 100 µM
[41]
  GI50: 33.3 µM
  TGI: > 100 µM
[42]
  GI50: 27.6 µM
  TGI: > 100 µM
[43]
  GI50: > 100 µM
  TGI: > 100 µM
[44]
  GI50: 29.9 µM
  TGI: > 100 µM
[45]
  GI50: > 100 µM
  TGI: > 100 µM
[46]
  GI50: 37.9 µM
  TGI: > 100 µM
[47]
  GI50: > 100 µM
  TGI: > 100 µM
[48]
  GI50: > 100 µM
  TGI: > 100 µM
[49]
  GI50: 69.5 µM
  TGI: > 100 µM
[50]
  GI50: > 100 µM
  TGI: > 100 µM
[51]
  GI50: > 100 µM
  TGI: > 100 µM
[52]
  GI50: > 100 µM
  TGI: > 100 µM
[53]
  GI50: 75.5 µM
  TGI: > 100 µM
[54]
  GI50: > 100 µM
  TGI: > 100 µM
[55]
  GI50: > 100 µM
  TGI: > 100 µM
[56]
  GI50: > 100 µM
  TGI: > 100 µM
